These results are taken from patent US10487056B2, “Small molecule androgen receptor inhibitors and methods of use thereof” (GEORGETOWN UNIVERSITY, priority 2015, dated 2019).

Common to all, as to format: cell-based
For data set [1], the target named is T1, AR (Homo sapiens, UniProt P10275).
T1 construct: Androgen-dependent VCaP cells were made to stably express an androgen-response element luciferase reporter (VCaP-ARE-luc); host or cells: VCaP / VCaP-ARE-luc
T1 sequence (P10275 1-920): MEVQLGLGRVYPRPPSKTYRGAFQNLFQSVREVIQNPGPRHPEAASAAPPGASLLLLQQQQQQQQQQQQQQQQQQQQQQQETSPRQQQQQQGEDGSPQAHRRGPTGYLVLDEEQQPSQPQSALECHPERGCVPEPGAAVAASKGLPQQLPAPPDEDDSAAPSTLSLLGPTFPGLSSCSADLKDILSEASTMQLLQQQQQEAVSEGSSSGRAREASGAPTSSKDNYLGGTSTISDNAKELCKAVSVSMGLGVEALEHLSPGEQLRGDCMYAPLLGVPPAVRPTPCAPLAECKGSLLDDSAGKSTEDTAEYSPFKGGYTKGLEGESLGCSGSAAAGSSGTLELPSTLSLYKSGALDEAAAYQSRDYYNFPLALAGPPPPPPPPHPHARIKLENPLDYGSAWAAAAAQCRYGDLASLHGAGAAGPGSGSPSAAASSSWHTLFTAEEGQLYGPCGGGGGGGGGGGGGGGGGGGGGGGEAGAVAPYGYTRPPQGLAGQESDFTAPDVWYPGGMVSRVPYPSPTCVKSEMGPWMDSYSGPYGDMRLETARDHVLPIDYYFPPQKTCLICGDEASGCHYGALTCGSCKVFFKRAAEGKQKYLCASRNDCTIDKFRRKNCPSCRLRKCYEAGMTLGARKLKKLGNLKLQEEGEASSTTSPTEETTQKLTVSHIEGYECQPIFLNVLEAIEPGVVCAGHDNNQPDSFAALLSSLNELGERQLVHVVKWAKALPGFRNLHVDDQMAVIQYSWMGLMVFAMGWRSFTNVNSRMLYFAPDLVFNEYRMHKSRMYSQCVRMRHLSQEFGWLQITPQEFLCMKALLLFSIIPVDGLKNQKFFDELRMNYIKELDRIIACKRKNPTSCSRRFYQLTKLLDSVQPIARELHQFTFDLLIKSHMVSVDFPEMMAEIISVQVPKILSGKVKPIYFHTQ
Kind of data set: VCaP-ARE-luc androgen-response element luciferase reporter assay. To be noted: DHT 1 nM, 24 hours. On the procedure:
(§1) VCaP and CWR22Rv1 (referred to as 22Rv1) cells were transduced with ARE-luciferase Cignal Lenti Pathway Reporter (Qiagen; Valencia, Calif.) and cultured as described above in the presence of 1 μg/mL puromycin. Following antibiotic selection, cells stably expressing ARE-luciferase were isolated, cloned and cultured to generate a stable ARE-reporter cell lines.
Androgen-dependent VCaP cells were made to stably express an androgen-response element luciferase reporter (VCaP-ARE-luc).
Background: A reporter such as luciferase makes a cellular process visible.

For data set [2], the system named is AR. Kind of data set: 22Rv1-ARE-luc androgen-response element luciferase reporter assay. To be noted: 24 hours. On the procedure: as §1
The test system of data set [3] is hTERT promoter. Kind of data set: hTERT promoter-luciferase reporter in 22Rv1 cells. The conditions noted are these: 2.5 μM, 24 hours. The method, then: 22Rv1 cells were transfected with hTERT promoter-luciferase reporter construct and Renilla luciferase plasmids (pRL-TK-Luc) and treated with 2.5 μM of SH-I-125 for 24 hours. Promoter activity was determined after normalization with Renilla luciferase activity. Columns, mean of three independent experiments with quadruplicate samples; bars, SEM.

Data set [4] deals with estrogen response element. Kind of data set: Estrogen response element (ERE) luciferase reporter in 22Rv1 cells. To be noted: 1 μM, 24 hours. On the procedure:
22Rv1 cells were transfected with ERE promoter-luciferase reporter construct and Renilla luciferase plasmids (pRL-TK-Luc) and treated with 1 μM of SH-I-125 for 24 hours. Promoter activity was determined after normalization with Renilla luciferase activity. Columns, mean of three independent experiments with quadruplicate samples; bars, SEM.

The test system of data set [5] is AR and AR-V7. Nature of the data set: Immunofluorescence staining of AR and AR-V7 in 22Rv1 cells. To be noted: SH-I-125 1 μM, 24 hours. On the procedure: […]. Androgen receptor (AR) and PSA expression levels were assessed.
(§2) Immunofluorescence staining was performed as described in Amin et al., Mol. Cancer Ther., 13:341-52 (2014).
22Rv1 cells represent a commonly observed castration-resistant phenotype, including androgen-independent growth and the expression of AR splice variants, such as AR-V7. […]. […] […].

Data set [6] relates to 22Rv1 cells. Kind of data set: Live and dead cell staining, 22Rv1 cells. The conditions noted are these: SH-I-125 1 μM, 3 days. The method, then:
(§3) Live and dead cells were determined using a Cell Viability/Cytotoxicity Assay kit (Biotium Inc.; Hayward, Calif.).
(§4) To determine the effects of SH-I-125 on prostate cancer cell growth, 22Rv1 cells were treated with SH-I-125 and cell viability was measured after a period of 3 days. […]. In comparison, non-tumorigenic primary prostate epithelial cells (PrEC) retained 80% viability in the presence of a similar range of doses of SH-I-125, showing that tumorigenic cells are more susceptible to the growth inhibitory properties of SH-I-125 compared to non-tumorigenic cells (FIG. 8B). […] Staurosporine was used as a positive control for cell death induction in live and dead assays (FIG. 9C).

Data set [7] concerns PrEC. Kind of data set: Live and dead cell staining, PrEC cells. To be noted: SH-I-125 5 μM, 3 days. The method, then:
as §3, §4

The test system of data set [8] is 22Rv1 cells. Kind of data set: Caspase-Glo 3/7 activity assay, 22Rv1 cells. The method, then:
22Rv1 cells were treated with SH-I-125 (1 μM) for one, two, or three days, and caspase 3/7 activity was measured using Caspase-Glo 3/7 substrates. […] Data represent mean of three independent experiments with quadruplicate samples; bars, SEM. ***, p value <0.001 determined by ANOVA.
(§5) Caspase 3/7 activity was measured using Caspase-Glo 3/7 substrates. Data represent mean of three independent experiments with quadruplicate samples; bars, SEM. ***, p value <0.001 determined by ANOVA.
[…]; Madison, Wis.).
. […] Staurosporine was used as a positive control for apoptosis induction (FIG. 10B).

The test system of data set [9] is VCaP cells. Nature of the data set: Caspase-Glo 3/7 activity assay, VCaP cells. The conditions noted are these: 3 days. On the procedure: as §5
The test system of data set [10] is VCaP-MDVR cells. Nature of the data set: Cell viability (MTT), VCaP-MDVR cells. To be noted: MDV3100, ARN-509 10 μM, SH-I-125 range, 3 days.
Protocol: Cell viability was measured using the MTT assay.
Cells were treated in the manner indicated below for the specified period of time.
For data set [11], the system named is 22Rv1-MDVR cells. Kind of data set: Caspase-Glo 3/7 activity assay, 22Rv1-MDVR cells. To be noted: SH-I-125 1 μM, 3 days. The method, then:
Caspase 3/7 activity was measured using Caspase-Glo 3/7 substrates. Data represent mean of three independent experiments with quadruplicate samples; bars, SEM.
The emergence of resistance to clinical anti-androgens is an ongoing problem in the treatment of castration-resistant prostate cancer.

For data set [12], the system named is AR. Nature of the data set: Immunofluorescence staining of AR and PSA in VCaP-MDVR cells. The conditions noted are these: DHT 1 nM, MDV3100 10 μM or SH-I-125 1 μM, 24 hours. The method, then: AR and PSA expression levels were assessed.
as §2

Consider `COc1ccc2c(c1)[nH]c1c(C)c(OS(=O)(=O)c3cccc4ccccc34)ccc12` [SH-I-125, 7-methoxy-1-methyl-9H-carbazol-2-yl naphthalene-1-sulfonate], for which the “potency relative to mahanine on AR signaling (ARE-luc)” value in data set [1] and in data set [2] was “more potent than mahanine” each time. Also, the “inhibition of AR transactivation (luciferase activity)” value in data set [1] (range of doses) is recorded as “comparable decline in luciferase activity”. Further, the ARE-luciferase activity result in [2] (range of doses) is reported as “almost completely abolishing ARE-luciferase activity”. In data set [3], the hTERT promoter-luciferase activity result was “unaffected”. The ERE promoter-luciferase activity result in data set [4] is recorded as “unaffected”. Besides, in [5], the “nuclear localization of AR and AR-V7” value is “decreased the nuclear localization of AR and AR-V7”. In addition, the “live and dead cell staining” value in [6] is reported as “killed 22Rv1 cells”; in data set [7], “mostly unaffected”. In addition, the “caspase 3/7 activity” value in data set [8] (3 days) and in [9] was “induced caspase activity” throughout. Also, in data set [8] (SH-I-125 1 μM, after three days treatment), the “caspase-3 and -7 activities, time-course” value is on record as “significantly induced”. Moreover, the “cell growth / viability” value in data set [10] was “effective in preventing the growth”. Further, the “caspase 3/7 activation” value in data set [11] is recorded as “inducing caspase activation”. Further, in data set [12], the “AR expression / nuclear localization” value is “decreased AR nuclear localization”. In addition, the PSA expression result in [12] is “decreased AR nuclear localization and PSA expression”.
